As a reminder, the IC50 is the concentration at which inhibition is half-maximal. What is called half-life is the time needed for the level to fall by half in the phase considered. A low value points to fast loss. One may read the bioavailability as the share of a dose that reaches the circulation, judged against a reference dose that is usually intravenous. Higher therefore signals good availability.

The values below come from ChEMBL document CHEMBL1145410 (Bioorg Med Chem Lett, 2007).

Data set [1] has as its target Dipeptidyl peptidase 8 (Homo sapiens, UniProt Q6V1X1). Put plainly: Inhibition of DPP8.
Data set [2] has as its target Dipeptidyl peptidase 9 (Homo sapiens, UniProt Q86TI2). Kind of data set: Inhibition of DPP9.
The target of data set [3] is Dipeptidyl peptidase 4 (Homo sapiens, UniProt P27487). Kind of data set: Inhibition of DPP4.
Chain of Dipeptidyl peptidase 4 (P27487 whole entry): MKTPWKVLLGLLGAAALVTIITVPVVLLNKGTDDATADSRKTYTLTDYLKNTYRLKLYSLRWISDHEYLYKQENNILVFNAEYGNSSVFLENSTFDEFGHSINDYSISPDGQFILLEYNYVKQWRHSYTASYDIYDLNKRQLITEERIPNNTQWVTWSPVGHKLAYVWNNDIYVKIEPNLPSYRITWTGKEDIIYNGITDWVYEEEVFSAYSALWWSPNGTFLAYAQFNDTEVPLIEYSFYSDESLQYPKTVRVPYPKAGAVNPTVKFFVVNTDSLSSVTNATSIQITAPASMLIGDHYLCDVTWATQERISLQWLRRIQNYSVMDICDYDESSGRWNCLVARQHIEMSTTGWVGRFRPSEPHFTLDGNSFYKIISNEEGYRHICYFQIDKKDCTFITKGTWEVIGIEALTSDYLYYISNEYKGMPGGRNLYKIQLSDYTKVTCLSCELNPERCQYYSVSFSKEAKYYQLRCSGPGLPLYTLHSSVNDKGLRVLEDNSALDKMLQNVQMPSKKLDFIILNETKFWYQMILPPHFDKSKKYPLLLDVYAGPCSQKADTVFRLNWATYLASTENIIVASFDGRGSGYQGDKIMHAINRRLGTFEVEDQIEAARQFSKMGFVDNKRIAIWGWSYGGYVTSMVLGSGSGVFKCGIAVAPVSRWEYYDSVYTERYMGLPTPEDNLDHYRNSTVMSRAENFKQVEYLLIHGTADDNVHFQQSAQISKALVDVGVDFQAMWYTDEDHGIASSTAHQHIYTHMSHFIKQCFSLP
The target of data set [4] is Dipeptidyl peptidase 2 (Homo sapiens, UniProt Q9UHL4). Put plainly: Inhibition of QPP.
Data set [5] in a line: Inhibition of rabbit calcium channel L type. More on the design: species or system Oryctolagus cuniculus.
Data set [6] concerns the target Cytochrome P450 2D6 (Homo sapiens, UniProt P10635). Put plainly: Inhibition of Cyp2D6. The data set is classed as ADME.
Data set [7] in a line: Plasma clearance in rat at 1 mg/kg iv or 2 mg/kg po. Type of data set: ADME, organism-based.
The nature of data set [8]: Half life in rat at 1 mg/kg iv or 2 mg/kg po. Type of data set: ADME, organism-based. To be noted: in vivo.
Data set [9] in a line: Bioavailability iin rat at 1 mg/kg iv or 2 mg/kg po. The data set is classed as ADME, organism-based. Particulars: in vivo.
Data set [10] addresses Voltage-gated inwardly rectifying potassium channel KCNH2 (Homo sapiens, UniProt Q12809). Kind of data set: Inhibition of human ERG potassium channel.

Chain of Voltage-gated inwardly rectifying potassium channel KCNH2 (Q12809 whole entry): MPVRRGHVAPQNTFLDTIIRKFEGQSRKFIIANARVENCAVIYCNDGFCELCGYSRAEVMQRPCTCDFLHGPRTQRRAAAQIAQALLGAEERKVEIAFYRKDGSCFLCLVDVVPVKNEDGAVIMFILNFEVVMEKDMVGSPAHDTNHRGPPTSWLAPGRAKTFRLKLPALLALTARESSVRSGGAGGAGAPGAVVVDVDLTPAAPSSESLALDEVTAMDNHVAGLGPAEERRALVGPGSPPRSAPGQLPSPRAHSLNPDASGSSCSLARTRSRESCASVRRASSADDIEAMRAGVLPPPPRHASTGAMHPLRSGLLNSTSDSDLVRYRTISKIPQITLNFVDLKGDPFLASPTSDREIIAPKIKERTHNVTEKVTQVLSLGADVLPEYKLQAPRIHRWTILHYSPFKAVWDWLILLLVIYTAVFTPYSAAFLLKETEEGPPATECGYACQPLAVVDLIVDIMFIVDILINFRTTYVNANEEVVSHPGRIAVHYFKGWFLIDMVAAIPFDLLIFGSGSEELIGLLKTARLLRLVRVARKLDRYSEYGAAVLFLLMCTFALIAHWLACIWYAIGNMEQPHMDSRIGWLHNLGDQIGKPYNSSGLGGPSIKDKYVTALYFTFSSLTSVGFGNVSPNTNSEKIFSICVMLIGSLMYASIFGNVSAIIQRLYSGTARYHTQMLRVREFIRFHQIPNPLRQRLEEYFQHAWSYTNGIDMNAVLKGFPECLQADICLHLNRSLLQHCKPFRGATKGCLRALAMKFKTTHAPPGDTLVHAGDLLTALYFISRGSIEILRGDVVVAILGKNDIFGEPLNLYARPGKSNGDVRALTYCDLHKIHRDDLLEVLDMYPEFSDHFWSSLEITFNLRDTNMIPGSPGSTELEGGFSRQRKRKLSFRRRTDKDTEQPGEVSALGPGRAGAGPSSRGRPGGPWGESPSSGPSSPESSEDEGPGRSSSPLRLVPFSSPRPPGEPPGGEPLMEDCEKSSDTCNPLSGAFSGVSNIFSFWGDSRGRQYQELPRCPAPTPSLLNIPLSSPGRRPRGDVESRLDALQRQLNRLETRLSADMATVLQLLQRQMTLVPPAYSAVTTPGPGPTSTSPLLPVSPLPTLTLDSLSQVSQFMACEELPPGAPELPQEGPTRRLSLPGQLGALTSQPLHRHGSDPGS
Chain of Dipeptidyl peptidase 9 (Q86TI2 whole entry): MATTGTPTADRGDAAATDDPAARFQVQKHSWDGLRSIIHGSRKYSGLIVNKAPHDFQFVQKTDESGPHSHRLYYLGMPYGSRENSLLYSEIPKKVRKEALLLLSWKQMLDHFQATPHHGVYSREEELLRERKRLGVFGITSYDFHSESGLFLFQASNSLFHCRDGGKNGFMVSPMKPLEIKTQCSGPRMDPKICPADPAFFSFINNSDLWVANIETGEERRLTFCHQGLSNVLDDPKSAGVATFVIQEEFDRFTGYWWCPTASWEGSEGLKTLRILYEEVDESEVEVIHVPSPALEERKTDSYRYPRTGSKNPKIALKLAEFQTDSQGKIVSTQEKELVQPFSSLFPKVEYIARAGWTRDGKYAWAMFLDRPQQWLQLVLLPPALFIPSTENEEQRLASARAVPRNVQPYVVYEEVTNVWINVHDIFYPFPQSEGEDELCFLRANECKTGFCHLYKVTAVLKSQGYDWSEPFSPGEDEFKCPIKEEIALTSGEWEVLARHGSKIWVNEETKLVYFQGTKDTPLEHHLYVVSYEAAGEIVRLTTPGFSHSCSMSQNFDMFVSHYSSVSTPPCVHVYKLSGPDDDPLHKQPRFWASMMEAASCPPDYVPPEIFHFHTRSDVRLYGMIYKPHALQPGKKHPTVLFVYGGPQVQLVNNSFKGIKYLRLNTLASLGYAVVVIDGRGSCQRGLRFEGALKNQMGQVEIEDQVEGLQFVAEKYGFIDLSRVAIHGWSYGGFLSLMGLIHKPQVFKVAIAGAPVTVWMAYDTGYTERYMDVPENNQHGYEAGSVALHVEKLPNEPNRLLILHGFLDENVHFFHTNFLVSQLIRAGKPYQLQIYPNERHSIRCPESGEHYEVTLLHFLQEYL
Chain of Cytochrome P450 2D6 (P10635 whole entry): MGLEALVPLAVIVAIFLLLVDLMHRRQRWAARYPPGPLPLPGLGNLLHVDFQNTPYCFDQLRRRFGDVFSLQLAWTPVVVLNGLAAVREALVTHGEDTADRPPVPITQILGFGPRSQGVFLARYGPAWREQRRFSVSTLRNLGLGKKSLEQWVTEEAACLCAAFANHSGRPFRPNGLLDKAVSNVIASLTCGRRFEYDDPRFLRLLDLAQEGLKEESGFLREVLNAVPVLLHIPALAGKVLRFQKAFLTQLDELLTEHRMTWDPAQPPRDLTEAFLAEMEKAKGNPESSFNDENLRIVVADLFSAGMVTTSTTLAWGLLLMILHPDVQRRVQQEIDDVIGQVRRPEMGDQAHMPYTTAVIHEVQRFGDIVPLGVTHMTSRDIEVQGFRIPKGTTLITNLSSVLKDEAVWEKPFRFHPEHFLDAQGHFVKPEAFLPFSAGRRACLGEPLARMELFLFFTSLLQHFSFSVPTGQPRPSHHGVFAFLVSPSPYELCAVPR
Chain of Dipeptidyl peptidase 8 (Q6V1X1 whole entry): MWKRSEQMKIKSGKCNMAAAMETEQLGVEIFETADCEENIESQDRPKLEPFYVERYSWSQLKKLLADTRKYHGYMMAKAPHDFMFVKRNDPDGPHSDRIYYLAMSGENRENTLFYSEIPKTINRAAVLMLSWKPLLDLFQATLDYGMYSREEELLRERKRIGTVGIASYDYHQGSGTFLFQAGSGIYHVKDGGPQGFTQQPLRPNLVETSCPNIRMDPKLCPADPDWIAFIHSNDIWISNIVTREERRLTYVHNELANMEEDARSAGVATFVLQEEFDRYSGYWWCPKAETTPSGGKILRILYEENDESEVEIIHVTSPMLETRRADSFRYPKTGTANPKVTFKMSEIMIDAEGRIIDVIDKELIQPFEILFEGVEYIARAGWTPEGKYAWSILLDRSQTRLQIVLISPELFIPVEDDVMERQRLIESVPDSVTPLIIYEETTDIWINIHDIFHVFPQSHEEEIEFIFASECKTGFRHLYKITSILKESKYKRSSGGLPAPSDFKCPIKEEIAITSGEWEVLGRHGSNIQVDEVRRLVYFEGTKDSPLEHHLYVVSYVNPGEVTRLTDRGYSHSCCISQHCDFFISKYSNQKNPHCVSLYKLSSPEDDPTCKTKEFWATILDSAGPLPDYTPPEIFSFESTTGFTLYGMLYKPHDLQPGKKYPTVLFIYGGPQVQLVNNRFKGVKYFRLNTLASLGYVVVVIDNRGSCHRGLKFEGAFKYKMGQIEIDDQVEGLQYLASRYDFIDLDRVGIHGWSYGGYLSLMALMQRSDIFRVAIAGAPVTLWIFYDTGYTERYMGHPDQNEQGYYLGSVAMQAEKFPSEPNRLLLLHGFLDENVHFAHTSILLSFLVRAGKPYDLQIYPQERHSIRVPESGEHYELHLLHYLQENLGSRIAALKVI

As to `N[C@H]1CN(c2ccc3nnc(C(F)(F)F)n3n2)CC[C@@H]1c1cc(F)c(F)cc1F`, the IC50 was over 100 µM in data set [1], 90 µM in data set [2], 0.009 µM in data set [3] and 96 µM in [4].

`N[C@H]1CN(c2ccc3nnc(-c4ccc(F)cc4)n3n2)CC[C@@H]1c1cc(F)c(F)cc1F`: the IC50 in data set [4] was 15 µM.

Consider `N[C@H]1CN(c2ccccn2)CC[C@@H]1c1cc(F)c(F)cc1F`, for which the concentration for half-maximal inhibition (IC50) is 34 µM in data set [1], 38 µM in data set [2], 0.058 µM in data set [3] and 50 µM in data set [4].

On to `N[C@H]1CN(c2cccnc2)CC[C@@H]1c1cc(F)c(F)cc1F`, for which the concentration for half-maximal inhibition (IC50) in data set [1] stood at 54 µM; in [2], 36 µM; in [3], 0.144 µM; in data set [4] it was 82 µM.

For `N[C@H]1CN(c2cccc(C(F)(F)F)n2)CC[C@@H]1c1cc(F)c(F)cc1F`, the 50% inhibitory concentration (IC50) in data set [1] was over 100 µM; in data set [2], 21 µM; in data set [3], 0.111 µM; in [4] it was 5.3 µM.

Consider `N[C@H]1CN(c2ncccc2C(F)(F)F)CC[C@@H]1c1cc(F)c(F)cc1F`, for which the IC50 in data set [1] and in data set [2] was over 100 µM throughout.

In the case of `N#Cc1ccc(N2CC[C@H](c3cc(F)c(F)cc3F)[C@@H](N)C2)nc1`, the 50% inhibitory concentration (IC50) turned out to be 5.8 µM in data set [1], 9.6 µM in data set [2], 0.014 µM in [3] and 40 µM in [4].

On to `N[C@H]1CN(c2ccncn2)CC[C@@H]1c1cc(F)c(F)cc1F`, for which the IC50 in data set [1] is 60 µM; in [2], 67 µM; in data set [3], 0.037 µM; in [4], over 100 µM; in [5], 26.9 µM.

With `N[C@H]1CN(c2cnccn2)CC[C@@H]1c1cc(F)c(F)cc1F`, the IC50 in data set [1] is 76 µM; in data set [2] it was 40 µM; in [3], 0.082 µM; in [4] it was 33 µM.

Turning to `N[C@H]1CN(c2cccnn2)CC[C@@H]1c1cc(F)c(F)cc1F`, the 50% inhibitory concentration (IC50) is 40 µM in [1], 44 µM in data set [2], 0.063 µM in data set [3] and over 100 µM in data set [4].

As for `N[C@H]1CN(c2nccc3ccccc23)CC[C@@H]1c1cc(F)c(F)cc1F`, the 50% inhibitory concentration (IC50) is over 100 µM in [1], over 100 µM in data set [2], 3.7 µM in data set [3] and 32 µM in data set [4].

With `N[C@H]1CN(c2ccc3nccnc3n2)CC[C@@H]1c1cc(F)c(F)cc1F`, the IC50 in [1] came to 25 µM; in data set [2] it was 50 µM; in data set [3], 0.007 µM; in data set [4] it was 35 µM.

As for `N[C@H]1CN(c2cnc3cccnc3n2)CC[C@@H]1c1cc(F)c(F)cc1F`, the concentration for half-maximal inhibition (IC50) in data set [1] is 66 µM; in data set [2], over 100 µM; in [3] it was 0.13 µM; in [4] it was 58 µM.

`N[C@H]1CN(c2cnc3cncnc3n2)CC[C@@H]1c1cc(F)c(F)cc1F` came in with a concentration for half-maximal inhibition (IC50) in data set [4] of 87 µM.

For `N[C@H]1CN(c2cnc3nccnc3n2)CC[C@@H]1c1cc(F)c(F)cc1F.O=C(O)C(F)(F)F`, the IC50 in data set [1] is 54 µM; in data set [2], over 100 µM; in data set [3], 0.013 µM; in [4], 93 µM; in [5] it was 4.1 µM; in [6], 11.6 µM. Moreover, the clearance in data set [7] is 62 mL/min/kg. In addition, the half-life in data set [8] was 1.4 h. For the same compound, the bioavailability in [9] was determined as 45%.

Take `N[C@H]1CN(c2ccc3nc(C(F)(F)F)nn3n2)CC[C@@H]1c1cc(F)c(F)cc1F`: the IC50 in data set [1] is over 100 µM; in data set [2], over 100 µM; in data set [3], 0.005 µM; in [4], over 100 µM; in [10], 8.1 µM; in data set [5] it was 1 µM. The half-inhibitory concentration (IC50) in data set [6] turned out to be 0.1 µM.

As for `N[C@H]1CN(c2ccn3cnnc3n2)CC[C@@H]1c1cc(F)c(F)cc1F.O=C(O)C(F)(F)F`, the concentration for half-maximal inhibition (IC50) in data set [1] is 30 µM; in [2], 43 µM; in [3], 0.026 µM; in data set [4], over 100 µM; in [6] it was 20.6 µM. The compound also came in with a clearance in [7] of 54 mL/min/kg. Also, the half-life in data set [8] is 1.5 h. Further, the bioavailability in [9] was found to be 19%.

On to `N[C@H]1CN(c2ccc3ncnc(C4CC4)c3n2)CC[C@@H]1c1cc(F)c(F)cc1F`, for which the IC50 is 28 µM in [1], 32 µM in data set [2], 0.008 µM in [3] and 9.9 µM in data set [4].

On to `Cc1nc2ccc(N3CC[C@H](c4cc(F)c(F)cc4F)[C@@H](N)C3)nc2c(=O)[nH]1`, for which the IC50 in data set [1] is 80 µM; in data set [2] it was over 100 µM; in data set [3], 0.007 µM; in [4] it was 46 µM.

In the case of `N[C@H]1CN(c2ccc3nc(=O)ccn3n2)CC[C@@H]1c1cc(F)c(F)cc1F.O=C(O)C(F)(F)F`, the concentration for half-maximal inhibition (IC50) in data set [1] was over 100 µM; in [2], 19 µM; in data set [3] it was 0.0012 µM; in [4], over 100 µM; in [10] it was 100 µM; in [5], 84.6 µM. Also, inhibition in [6] was half-maximal at 55.4 µM (IC50). Further, in data set [7], the clearance is 35 mL/min/kg. This compound gave a half-life in data set [8] of 1.6 h. This compound came in with a bioavailability in [9] of 12%.

Take `Cc1cc(=O)n2nc(N3CC[C@H](c4cc(F)c(F)cc4F)[C@@H](N)C3)ccc2n1.O=C(O)C(F)(F)F`: the IC50 is over 100 µM in data set [1]; over 100 µM in data set [2]; 0.008 µM in data set [3]; over 100 µM in [4]; 33.2 µM in data set [10]; 18.5 µM in [5]. The IC50 in [6] turned out to be 16.2 µM. The compound further gave a clearance in [7] of 18 mL/min/kg. In data set [8], this compound had a half-life of 1.4 h. In data set [9], the bioavailability stood at 74%.

Turning to `N[C@H]1CN(c2ccc3nncn3n2)CC[C@@H]1c1cc(F)c(F)cc1F`, the half-maximal inhibitory concentration (IC50) in data set [1] was over 100 µM; in data set [2], over 100 µM; in data set [3], 0.031 µM; in [4] it was over 100 µM.

Turning to `Cc1nnc2ccc(N3CC[C@H](c4cc(F)c(F)cc4F)[C@@H](N)C3)nn12.O=C(O)C(F)(F)F`, the IC50 in data set [1] was over 100 µM; in data set [2] it was over 100 µM; in data set [3] it was 0.006 µM; in [4], 74 µM; in data set [5], 2 µM. The compound further yielded a clearance in data set [7] of 12 mL/min/kg. The half-life in data set [8] was 4.7 h. The compound also gave a bioavailability in [9] of 100%.

In data set [4], `N[C@H]1CN(c2ccc(C(F)(F)F)cn2)CC[C@@H]1c1cc(F)c(F)cc1F` registered an IC50 of 28 µM.

For `N[C@H]1CN(c2ccc3ccccc3n2)CC[C@@H]1c1cc(F)c(F)cc1F`, the IC50 in [1] is 10 µM; in [2] it was 13 µM; in [3], 0.054 µM; in data set [4] it was 21 µM.

With `N[C@H]1CN(c2cnc3ccccc3n2)CC[C@@H]1c1cc(F)c(F)cc1F`, the IC50 in data set [4] is 27 µM.

As for `N[C@H]1CN(c2ccc3nc(C(F)(F)F)cn3n2)CC[C@@H]1c1cc(F)c(F)cc1F`, the IC50 in data set [1] amounted to 49 µM; in data set [2] it was 75 µM; in [3] it was 0.022 µM; in data set [4], 64 µM.

With `Cn1c(C2CC2)nc2ccc(N3CC[C@H](c4cc(F)c(F)cc4F)[C@@H](N)C3)nc21`, the half-inhibitory concentration (IC50) in data set [1] is over 100 µM; in data set [2], 57 µM; in data set [3], 0.002 µM; in data set [4] it was 41 µM.

In [4], `CCc1nnc2ccc(N3CC[C@H](c4cc(F)c(F)cc4F)[C@@H](N)C3)nn12` returned a half-maximal inhibitory concentration (IC50) of 90 µM.

Regarding `N[C@H]1CN(c2ccccc2)CC[C@@H]1c1cc(F)c(F)cc1F`, the IC50 in data set [1] came to 33 µM; in [2] it was 39 µM; in data set [3], 0.21 µM; in [4], 5.5 µM.

Take `N[C@H]1CN(c2ccncc2)CC[C@@H]1c1cc(F)c(F)cc1F`: the 50% inhibitory concentration (IC50) was determined as 43 µM in data set [1], 35 µM in data set [2], 0.125 µM in data set [3] and 46 µM in data set [4].

Take `Cn1nc2ccc(N3CC[C@H](c4cc(F)c(F)cc4F)[C@@H](N)C3)nn2c1=O`: in [4], the 50% inhibitory concentration (IC50) was 57 µM.

On to `N[C@H]1CN(c2ncccn2)CC[C@@H]1c1cc(F)c(F)cc1F`, for which the IC50 amounted to 33 µM in data set [1], 58 µM in data set [2], 0.09 µM in [3] and 54 µM in [4].
